According to patent US20100136541A1, “IDENTIFICATION AND VERIFICATION OF METHYLATION MARKER SEQUENCES” (Siemens Healthcare Diagnostics Inc., priority 2003, published 2010):

Tested on: CA4 CpG sites
Experiment: Bisulfite sequencing of CpG sites, cell lines treated vs. untreated
Assay type: cell-based, human
Parameters: unit not given here
Description: Samples: Paired tumor and adjacent normal tissues from twelve colorectal cancer patients were collected under institutional review board (IRB) approval with patient consent. Tissues were flash frozen in LN2 and stored at −80° C. prior to DNA extraction. All tissues were blinded. Cell lines: A panel of five colorectal cancer cell lines was used. Cells were grown to ˜50% confluence in the appropriate culture medium prior to treatment with 5-aza-2′-deoxycytidine. Optimal concentrations and incubation times (Table 4) were determined by assaying for reduction of p16 promoter methylation using MSP. Cells were harvested, pelleted by centrifugation, and washed twice in Hanks buffered saline solution. Cell pellets were stored at −80° C. Control cells were maintained simultaneously without 5-aza-2′-deoxycytidine treatment. DNA extraction: DNA was purified from tissues and cell lines using the QIAGEN DNeasy® Tissue Kit. Approximately 25-35 mg of each tissue was pulverized under liquid nitrogen before extraction. Elution volume for tissues was 2004. A final volume of […] of cell line DNA was extracted from 15 to 254 of each packed cell pellet (between 10^6-10^7 cells). Purified DNA was stored at −20° C. Bisulfite modification: Modification was performed according to the Frommer method (See Frommer M, et al., PNAS, 89: 1827-1831 (1992).) One μg genomic DNA was diluted into 50 μl with distilled H2O, 5.5 μl of 2M NaOH was added, and the mixture incubated at 37° C. for 10 minutes (to create single stranded DNA). Thirty μl of freshly prepared 10 mM hydroquinone (Sigma) was added to each tube. Five hundred twenty μl of freshly prepared 3M sodium bisulfite (Sigma S-8890), pH 5.0 was then added. Reagents were thoroughly mixed and then covered with mineral oil and incubated at 50° C. for 16 hours. After removing the oil, 1 ml of Wizard DNA Cleanup Resin (Promega A7280) was added to each tube prior to applying the mixture to miniprep column in the DNA Wizard Cleanup kit. The column was washed with 2 ml of 80% isopropanol, and eluted with 50 μl of heated water (60-70° C.). 5.5 μl of 3 M NaOH to was added to each tube, and incubated at room temperature for 5 minutes. Then 1 μl glycogen was added as carrier, 33 μl of 10 M NH4Ac, and 3 volumes of ethanol for DNA precipitation. The pellet was spun down and washed with 70% ethanol, dried and resuspended in 20 μl water. In some instances, the EZ DNA Methylation Kit (Zymo Research) which uses a simplified version of the Frommer method was used. In these cases, 1 μg of genomic DNA was denatured in 0.3M NaOH for 15 minutes at 37° C. followed by incubation at 50° C. for 16 hours in 0.5 mM hydroquinone and a saturated solution of sodium bisulfite at pH 5. Modified DNA was bound to the Zymo column membrane, then desulfonated with 0.3M NaOH for 15 minutes at room temperature. DNA was washed and resuspended with 50 μL 10 mM Tris-HCl-0.1 mM EDTA, pH 7.5 and stored at −20° C. The bisulfite reaction results in conversion of an unmethylated cytosine to uracil. Methylated cytosine remains unchanged after the bisulfite reaction. The resulting bisulfite modified DNA is single stranded. PCR amplification for sequencing: Primers were designed to amplify both methylated and unmethylated fragments of DNA (Table 5). Five μL of modified DNA ( 1/10 of modification reaction) was amplified first in a 254, reaction volume containing 10 mM Tris-HCl pH8.3, 50 mM KCl, 1.5 mM to 2 mM MgCl2, (Applied Biosystems), 0.25 mM each dNTP, 0.5 unit AmpliTaq (Applied Biosystems), and sequencing primers (each at 200 nM). Cycling conditions were 10 minutes at 95° C., 40 cycles of 30 seconds at 95° C., 30 seconds at 54-62° C., 30 seconds at 72° C., subsequently followed by extension for 5 minutes at 72° C.
Reaction products were purified either by the shrimp-alkaline phosphatase-Exol standard method or on the Qiagen Qiaquick PCR clean-up column and eluted in 30 μL 10 mM Tris-HCl, pH8.5. […]

Nc1ncn([C@H]2C[C@H](O)[C@@H](CO)O2)c(=O)n1 [5-aza-2′-deoxycytidine]
CA4 sequencing result (methylation) at CpG site #6 (HT-29 treated): 47
CA4 sequencing result (methylation) at CpG site #35 (HT-29 treated): 96
CA4 sequencing result (methylation) at CpG site #43 (HT-29 treated): 77
CA4 sequencing result (methylation) at CpG site #52 (HT-29 treated): 92
CA4 sequencing result (methylation) at CpG site #104 (HT-29 treated): 50
CA4 sequencing result (methylation) at CpG site #120 (HT-29 treated): 67
CA4 sequencing result (methylation) at CpG site #127 (HT-29 treated): 74
CA4 sequencing result (methylation) at CpG site #129 (HT-29 treated): 87
CA4 sequencing result (methylation) at CpG site #140 (HT-29 treated): 84
CA4 sequencing result (methylation) at CpG site #153 (HT-29 treated): 83
CA4 sequencing result (methylation) at CpG site #156 (HT-29 treated): 72
CA4 sequencing result (methylation) at CpG site #158 (HT-29 treated): 87
CA4 sequencing result (methylation) at CpG site #164 (HT-29 treated): 87
CA4 sequencing result (methylation) at CpG site #181 (HT-29 treated): 73
CA4 sequencing result (methylation) at CpG site #190 (HT-29 treated): 68
CA4 sequencing result (methylation) at CpG site #199 (HT-29 treated): 92
CA4 sequencing result (methylation) at CpG site #201 (HT-29 treated): 100
CA4 sequencing result (methylation) at CpG site #204 (HT-29 treated): 94
CA4 sequencing result (methylation) at CpG site #213 (HT-29 treated): 91
CA4 sequencing result (methylation) at CpG site #218 (HT-29 treated): 65
CA4 sequencing result (methylation) at CpG site #220 (HT-29 treated): 79
CA4 sequencing result (methylation) at CpG site #227 (HT-29 treated): 47
CA4 sequencing result (methylation) at CpG site #6 (LS123 treated): 75
CA4 sequencing result (methylation) at CpG site #35 (LS123 treated): 39
CA4 sequencing result (methylation) at CpG site #43 (LS123 treated): 62
CA4 sequencing result (methylation) at CpG site #52 (LS123 treated): 69
CA4 sequencing result (methylation) at CpG site #104 (LS123 treated): 16
CA4 sequencing result (methylation) at CpG site #120 (LS123 treated): 27
CA4 sequencing result (methylation) at CpG site #127 (LS123 treated): 70
CA4 sequencing result (methylation) at CpG site #129 (LS123 treated): 46
CA4 sequencing result (methylation) at CpG site #140 (LS123 treated): 62
CA4 sequencing result (methylation) at CpG site #153 (LS123 treated): 43
CA4 sequencing result (methylation) at CpG site #156 (LS123 treated): 40
CA4 sequencing result (methylation) at CpG site #158 (LS123 treated): 22
CA4 sequencing result (methylation) at CpG site #164 (LS123 treated): 62
CA4 sequencing result (methylation) at CpG site #181 (LS123 treated): 18
CA4 sequencing result (methylation) at CpG site #190 (LS123 treated): 11
CA4 sequencing result (methylation) at CpG site #199 (LS123 treated): 17
CA4 sequencing result (methylation) at CpG site #201 (LS123 treated): 33
CA4 sequencing result (methylation) at CpG site #204 (LS123 treated): 20
CA4 sequencing result (methylation) at CpG site #213 (LS123 treated): 29
CA4 sequencing result (methylation) at CpG site #218 (LS123 treated): 24
CA4 sequencing result (methylation) at CpG site #220 (LS123 treated): 20
CA4 sequencing result (methylation) at CpG site #227 (LS123 treated): 11
CA4 sequencing result (methylation) at CpG site #6 (LS174T treated): 93
CA4 sequencing result (methylation) at CpG site #35 (LS174T treated): 35
CA4 sequencing result (methylation) at CpG site #43 (LS174T treated): 39
CA4 sequencing result (methylation) at CpG site #52 (LS174T treated): 40
CA4 sequencing result (methylation) at CpG site #104 (LS174T treated): 18
CA4 sequencing result (methylation) at CpG site #120 (LS174T treated): 22
CA4 sequencing result (methylation) at CpG site #127 (LS174T treated): 19
CA4 sequencing result (methylation) at CpG site #129 (LS174T treated): 62
CA4 sequencing result (methylation) at CpG site #140 (LS174T treated): 28
CA4 sequencing result (methylation) at CpG site #153 (LS174T treated): 23
CA4 sequencing result (methylation) at CpG site #156 (LS174T treated): 32
CA4 sequencing result (methylation) at CpG site #158 (LS174T treated): 10
CA4 sequencing result (methylation) at CpG site #164 (LS174T treated): 41
CA4 sequencing result (methylation) at CpG site #181 (LS174T treated): 22
CA4 sequencing result (methylation) at CpG site #190 (LS174T treated): 61
CA4 sequencing result (methylation) at CpG site #199 (LS174T treated): 10
CA4 sequencing result (methylation) at CpG site #201 (LS174T treated): 67
CA4 sequencing result (methylation) at CpG site #204 (LS174T treated): 3
CA4 sequencing result (methylation) at CpG site #213 (LS174T treated): 56
CA4 sequencing result (methylation) at CpG site #218 (LS174T treated): 64
CA4 sequencing result (methylation) at CpG site #220 (LS174T treated): 45
CA4 sequencing result (methylation) at CpG site #227 (LS174T treated): 27
CA4 sequencing result (methylation) at CpG site #6 (SW480 treated): 70
CA4 sequencing result (methylation) at CpG site #35 (SW480 treated): 61
CA4 sequencing result (methylation) at CpG site #43 (SW480 treated): 57
CA4 sequencing result (methylation) at CpG site #52 (SW480 treated): 73
CA4 sequencing result (methylation) at CpG site #104 (SW480 treated): 13
CA4 sequencing result (methylation) at CpG site #120 (SW480 treated): 52
CA4 sequencing result (methylation) at CpG site #127 (SW480 treated): 44
CA4 sequencing result (methylation) at CpG site #129 (SW480 treated): 18
CA4 sequencing result (methylation) at CpG site #140 (SW480 treated): 14
CA4 sequencing result (methylation) at CpG site #153 (SW480 treated): 17
CA4 sequencing result (methylation) at CpG site #156 (SW480 treated): 53
CA4 sequencing result (methylation) at CpG site #158 (SW480 treated): 7
CA4 sequencing result (methylation) at CpG site #164 (SW480 treated): 66
CA4 sequencing result (methylation) at CpG site #181 (SW480 treated): 27
CA4 sequencing result (methylation) at CpG site #190 (SW480 treated): 57
CA4 sequencing result (methylation) at CpG site #199 (SW480 treated): 28
CA4 sequencing result (methylation) at CpG site #201 (SW480 treated): 56
CA4 sequencing result (methylation) at CpG site #204 (SW480 treated): 27
CA4 sequencing result (methylation) at CpG site #213 (SW480 treated): 51
CA4 sequencing result (methylation) at CpG site #218 (SW480 treated): 35
CA4 sequencing result (methylation) at CpG site #220 (SW480 treated): 32
CA4 sequencing result (methylation) at CpG site #227 (SW480 treated): 23
CA4 sequencing result (methylation) at CpG site #6 (SW620 treated): 64
CA4 sequencing result (methylation) at CpG site #35 (SW620 treated): 89
CA4 sequencing result (methylation) at CpG site #43 (SW620 treated): 81
CA4 sequencing result (methylation) at CpG site #52 (SW620 treated): 77
CA4 sequencing result (methylation) at CpG site #104 (SW620 treated): 33
CA4 sequencing result (methylation) at CpG site #120 (SW620 treated): 74
CA4 sequencing result (methylation) at CpG site #127 (SW620 treated): 67
CA4 sequencing result (methylation) at CpG site #129 (SW620 treated): 80
CA4 sequencing result (methylation) at CpG site #140 (SW620 treated): 78
CA4 sequencing result (methylation) at CpG site #153 (SW620 treated): 60
CA4 sequencing result (methylation) at CpG site #156 (SW620 treated): 69
CA4 sequencing result (methylation) at CpG site #158 (SW620 treated): 73
CA4 sequencing result (methylation) at CpG site #164 (SW620 treated): 92
CA4 sequencing result (methylation) at CpG site #181 (SW620 treated): 43
CA4 sequencing result (methylation) at CpG site #190 (SW620 treated): 46
CA4 sequencing result (methylation) at CpG site #199 (SW620 treated): 10
CA4 sequencing result (methylation) at CpG site #201 (SW620 treated): 96
CA4 sequencing result (methylation) at CpG site #204 (SW620 treated): 100
CA4 sequencing result (methylation) at CpG site #213 (SW620 treated): 96
CA4 sequencing result (methylation) at CpG site #218 (SW620 treated): 91
CA4 sequencing result (methylation) at CpG site #220 (SW620 treated): 93
CA4 sequencing result (methylation) at CpG site #227 (SW620 treated): 37
